Laboratory results from patent US9012493B2, “1-heterodiene derivative and pest control agent” (Nippon Soda Co., Ltd., priority 2009, dated 2015).

Experiments:
Type in all cases: in vivo
[1] = test system: Sweetpotato Whitefly (Bemisia Tabaci); assay: Efficacy test against sweetpotato whitefly, sprayed tomato leaf; conditions: 125 ppm, emulsifiable concentrate diluted with water, adults (type B), after 2 days, 25° C.
Procedure: (§1) Test Examples of the pest control agent thus obtained according to the present invention are shown below. In respective Test Examples, the insecticidal rate (%) was determined by the following calculation equation. Insecticidal rate (%)=(number of dead pests/number of released pests)×100
The emulsifiable concentrate obtained according to Formulation of Formulation Example 2 was diluted with water so as to control the concentration of the compound to 125 ppm. The diluted solution was sprayed over a tomato leaf obtained by cutting and then air-dried. Using absorbent cotton, the leaf was fixed to a flask so that a front surface of the leaf faces upward. Seven pairs of adults of sweetpotato whitefly (type B) were inoculated in this container, and the container was placed in a temperature-controlled room at a temperature of 25° C. and a humidity of 65%. After 2 days, life and death were examined and the insecticidal rate was determined. The test was repeated twice.

[2] = test system: Twospotted Spider Mite (Tetranychus Urticae Koch); assay: Efficacy test against twospotted spider mite, spray on kidney bean plant; conditions: 125 ppm, wettable powder diluted with water, sprayed, female adults with resistance to an organophosphorus agent on kidney bean, after 3 days
Procedure: The wettable powder obtained according to Formulation of Formulation Example 1 was diluted with water so as to control the concentration of the compound to 125 ppm. Seventeen female adults of twospotted spider mite with resistance to an organophosphorus agent were inoculated on a first true leaf of a kidney bean plant (approximately 7 to 10 days after sprouting) sown in a 3 sun/size pot (9 cm). The diluted solution was sprayed. The pot was placed in a temperature-controlled room at a temperature of 25° C. and a humidity of 65%. After 3 days, the adulticidal rate was examined. The test was repeated twice.

[3] = test system: Cotton Aphid (Aphis Gossypii); assay: Efficacy test against cotton aphid, spray on cucumber plant; conditions: 125 ppm, emulsifiable concentrate diluted with water, sprayed over cucumber plant with nymphs, after 5 days, 25° C.
Procedure: as §1
The emulsifiable concentrate obtained according to Formulation of Formulation Example 2 was diluted with water so as to control the concentration of the compound to 125 ppm. Adults of cotton aphids were inoculated to a cucumber plant (approximately 10 days after sprouting) sown in a 3 sun/size pot (9 cm). After 1 day, adult aphids were removed and the diluted solution was sprayed over the cucumber plant on which delivered nymphs are parasitic. The pot was placed in a temperature-controlled room at a temperature of 25° C. and a humidity of 65%. After 5 days, life and death were examined and the insecticidal rate was determined. The test was repeated twice.

[4] = test system: Rice Armyworm (Mythimna Separata); assay: Efficacy test against rice armyworm, corn leaf dip; conditions: 125 ppm, emulsifiable concentrate diluted with water, corn leaves immersed, second instar larvae, after 5 days, 25° C.
Procedure: as §1
The emulsifiable concentrate obtained according to Formulation of Formulation Example 2 was diluted with water so as to control the concentration of the compound to 125 ppm. Leaves of corn were immersed in this diluted solution for 30 seconds and then air-dried. The leaves were put in a petri dish on which a filter paper is laid, and then five second instar larvae of rice armyworm were inoculated. After covering the petri dish with a glass lid, the petri dish was placed in a temperature-controlled room at a temperature of 25° C. and a humidity of 65%. After 5 days, life and death were examined and the insecticidal rate was determined. The test was repeated twice.

CC(C)=C1CCC(=CSc2ccccc2)C(=Nc2ccc(C)cc2)S1 (mixture of isomers) [Compound 6-1]
100%: insecticidal rate [1] | adulticidal rate [2] | insecticidal rate [3] | insecticidal rate [4]

C=C1SC(=Nc2ccc(C)cc2)C(=CSc2ccccc2)CC1c1ccccc1 (racemic) [Compound 2-15]
100%: insecticidal rate [1] | adulticidal rate [2] | insecticidal rate [3] | insecticidal rate [4]

CC(C)=C1CCC(=C\Sc2ccccc2)/C(=N/c2ccc(Cl)cc2)S1 [Compound 2-2, (4-chloro-phenyl)-{6-isopropylidene-3-[1-phenylsulfanyl-(E)-methylidene]-tetrahydro-thiopyran-(2Z)-ylidene}-amine]
100%: insecticidal rate [1] | adulticidal rate [2] | insecticidal rate [3] | insecticidal rate [4]

CC/C=C1/CCC(=C\Sc2ccccc2)/C(=N/c2ccc(Cl)cc2)S1 [Compound 2-3]
100%: insecticidal rate [1] | adulticidal rate [2] | insecticidal rate [3] | insecticidal rate [4]

C=C1CCC(=CSc2ccccc2)C(=Nc2ccc(C)cc2)S1 [Compound 2-4]
100%: insecticidal rate [1] | adulticidal rate [2] | insecticidal rate [3] | insecticidal rate [4]

C=C1CCC(=CSc2ccc(F)cc2)C(=Nc2ccc(C)cc2)S1 [Compound 2-6]
100%: insecticidal rate [1] | adulticidal rate [2] | insecticidal rate [3] | insecticidal rate [4]

C=C1SC(=N\c2ccc(C)cc2)/C(=C/Sc2ccccc2)CC1(C)C [Compound 2-11, {5,5-dimethyl-6-methylene-3-[1-phenylsulfanyl-(E)-methylidene]-tetrahydro-thiopyran-(2Z)-ylidene}-p-tolyl-amine]
100%: insecticidal rate [1] | adulticidal rate [2] | insecticidal rate [3] | insecticidal rate [4]

C=C1SC(=Nc2ccc(Cl)cc2)C(=CSc2ccccc2)CC1(C)C [Compound 2-12]
100%: insecticidal rate [1] | adulticidal rate [2] | insecticidal rate [3] | insecticidal rate [4]

C=C1SC(=Nc2ccc(Cl)cc2)C(=CSc2ccc(F)cc2)CC1(C)C [Compound 2-13]
100%: insecticidal rate [1] | adulticidal rate [2] | insecticidal rate [3] | insecticidal rate [4]

C=C1CCC(=CSc2ccccc2)C(=[NH+]c2ccc(C)cc2)S1.F[B-](F)(F)F [Compound 2-14]
100%: insecticidal rate [1] | adulticidal rate [2] | insecticidal rate [3] | insecticidal rate [4]

C=C1SC(=Nc2ccc(C)cc2)C(=CSc2ccccc2)CC12CCCCC2 [Compound 2-17]
100%: insecticidal rate [1] | adulticidal rate [2] | insecticidal rate [3] | insecticidal rate [4]

C=C1SC(=Nc2ccc(C)cc2)C(=CSc2cccc(OC)c2)CC1(C)C [Compound 2-20]
100%: insecticidal rate [1] | adulticidal rate [2] | insecticidal rate [3] | insecticidal rate [4]

C=C1SC(=Nc2ccc(OC)c(C)c2)C(=CSc2ccccc2)CC1(C)C [Compound 2-34]
100%: insecticidal rate [1] | adulticidal rate [2] | insecticidal rate [3] | insecticidal rate [4]

C=C1SC(=Nc2ccc(Cl)c(Cl)c2)C(=CSc2ccccc2)CC1(C)C [Compound 2-35]
100%: insecticidal rate [1] | adulticidal rate [2] | insecticidal rate [3] | insecticidal rate [4]

C=C1SC(=Nc2cccc(C(F)(F)F)c2)C(=CSc2ccccc2)CC1(C)C [Compound 2-36]
100%: insecticidal rate [1] | adulticidal rate [2] | insecticidal rate [3] | insecticidal rate [4]

C=C1SC(=Nc2ccc(OC)cc2C)C(=CSc2ccccc2)CC1(C)C [Compound 2-40]
100%: insecticidal rate [1] | adulticidal rate [2] | insecticidal rate [3] | insecticidal rate [4]

C=C1SC(=Nc2ccc(OC)cc2C)C(=CSc2ccc(F)cc2)CC1(C)C [Compound 2-41]
100%: insecticidal rate [1] | adulticidal rate [2] | insecticidal rate [3] | insecticidal rate [4]

C=C1SC(=Nc2ccc(OC)cc2)C(=CSc2ccc(F)cc2)CC1(C)C [Compound 2-46]
100%: insecticidal rate [1] | adulticidal rate [2] | insecticidal rate [3] | insecticidal rate [4]

C=C1SC(=Nc2ccc(C)cc2)C(=CSc2ccc(F)cc2)CC1(C)C [Compound 2-48]
100%: insecticidal rate [1] | adulticidal rate [2] | insecticidal rate [3] | insecticidal rate [4]

C=C1SC(=Nc2ccc(OC)cc2)C(=CSc2ccccc2OC)CC1(C)C [Compound 2-49]
100%: insecticidal rate [1] | adulticidal rate [2] | insecticidal rate [3] | insecticidal rate [4]

C=C1SC(=Nc2ccc(C)cc2)C(=CSc2ccccc2)CC12CCOCC2 [Compound 2-56]
100%: insecticidal rate [1] | adulticidal rate [2] | insecticidal rate [3] | insecticidal rate [4]

C=C1SC(=Nc2ccc(C)cc2C)C(=CSc2ccccc2)CC1(C)C [Compound 2-64]
100%: insecticidal rate [1] | adulticidal rate [2] | insecticidal rate [3] | insecticidal rate [4]

C=C1SC(=Nc2ccc(C)cc2)C(=CSc2ccccc2)CC1CC (stereo not shown) [Compound 2-68]
100%: insecticidal rate [1] | adulticidal rate [2] | insecticidal rate [3] | insecticidal rate [4]

C=C1SC(=Nc2ccc(OC)cc2)C(=CSc2ccc(C#N)cc2)CC1(C)C [Compound 2-70]
100%: insecticidal rate [1] | adulticidal rate [2] | insecticidal rate [3] | insecticidal rate [4]

C=C1SC(=Nc2ccc(C)cc2)C(=CSc2cccs2)CC1(C)C [Compound 2-71]
100%: insecticidal rate [1] | adulticidal rate [2] | insecticidal rate [3] | insecticidal rate [4]

C=C1SC(=Nc2ccc(C)cc2)C(=CSc2ccc(C#N)cc2)CC1(C)C [Compound 2-72]
100%: insecticidal rate [1] | adulticidal rate [2] | insecticidal rate [3] | insecticidal rate [4]

C=C1SC(=Nc2ccc(C)cc2)C(=CSc2ccccc2)CC1CCC (stereo not shown) [Compound 2-75]
100%: insecticidal rate [1] | adulticidal rate [2] | insecticidal rate [3] | insecticidal rate [4]

C=C1SC(=Nc2ccc(C)cc2)C(=CSc2ccccc2)CC1C (stereo not shown) [Compound 2-76]
100%: insecticidal rate [1] | adulticidal rate [2] | insecticidal rate [3] | insecticidal rate [4]

C=C1SC(=Nc2ccc(C)cc2)C(=CSc2cccs2)CC1C (stereo not shown) [Compound 2-77]
100%: insecticidal rate [1] | adulticidal rate [2] | insecticidal rate [3] | insecticidal rate [4]

C=C1SC(=Nc2ccc(C)cc2)C(=CSc2ccsc2)CC1(C)C [Compound 2-78]
100%: insecticidal rate [1] | adulticidal rate [2] | insecticidal rate [3] | insecticidal rate [4]

C=C1SC(=Nc2ccc(C)cc2)C(=CSc2ccc(C)s2)CC1(C)C [Compound 2-79]
100%: insecticidal rate [1] | adulticidal rate [2] | insecticidal rate [3] | insecticidal rate [4]

C=C1SC(=Nc2ccc(C)cc2)C(=CSc2ccc(OC)s2)CC1(C)C [Compound 2-80]
100%: insecticidal rate [1] | adulticidal rate [2] | insecticidal rate [3] | insecticidal rate [4]

C=C1SC(=Nc2ccc(OC)cc2)C(=CSc2ccsc2)CC1(C)C [Compound 2-81]
100%: insecticidal rate [1] | adulticidal rate [2] | insecticidal rate [3] | insecticidal rate [4]

C=C1SC(=Nc2ccc(OC)cc2)C(=CSc2ccc(C)s2)CC1(C)C [Compound 2-83]
100%: insecticidal rate [1] | adulticidal rate [2] | insecticidal rate [3] | insecticidal rate [4]
